Data from patent US6770632B1, “Folypolyglutamyl synthetase gene transfer to enhance antifolate” (priority 1999, dated 2004).
“And” between values parts separate entries of the source, which are not always exact repeats. Equal values may be shown once. Read-outs that look alike come from different tables or passages of the source.

Assays:
[1] = tested on: 9L cells transfected with HSV-TK; conditions: 9L cells stably transfected with HSV-TK cDNA; cited from earlier work
[2] = tested on: 9L/FPGS cells; experiment: [3H]MTX accumulation and thin layer chromatography of MTX polyglutamates in 9L/FPGS cells; conditions: 24 hour exposure to 2 μM MTX, TLC
Description: (§3) Thin Layer Chromatography of MTX Metabolites: 10^6 9L or 9L/FPGS cells were plated in 6-cm diameter dishes and allowed to adhere for 4 hours, after which cells were incubated overnight with 2 μM 3′, 5′, 7-[^3H] methotrexate (Moravek Biochemicals; Brea, Calif.). Cells were then trypsinized, centrifuged, resuspended in 300 μL deionized water, and sonicated for 45 seconds at half-maximal power. Sonicated cells were centrifuged briefly to remove cellular debris, after which protein concentration was calculated using the Bradford protein assay. Proteins were precipitated with 1 mL methanol at −20° C. for 2 hr. Precipitated proteins were removed by centrifugation at 20,000 g for 30 min, and the supernatant was then concentrated to 30 μL under a stream of N2 at 37° C. on a Meyer N-Evap Analytical Evaporator (Organomation Associates Inc., Northborough, Mass.). A 1 μL aliquot was scintillation counted—cpm were converted into moles of drug taken up by determining the cpm of a known quantity of [^3H] MTX. […] Plates were eluted with a chloroforrn-methanol-acetic acid mixture (2:2:1) containing 20 mg/mL cetyl trimethylammonium bromide (Sigma). Following elution, the plates were placed under ordinary fluorescent light for 2 days, after which 20 nmol unlabelled standards were visualized under long-wave ultraviolet light. Plates were run in duplicate and the average RF values of the standards were: MTX=0.66; MTX-G1=0.59; MTX-G2=0.44, MTX-G3=0.33; MTX-G4=0.27; MTX-G5=0.25. Regions corresponding to where standards migrated were marked in the sample lane, scraped individually into scintillation vials, and counted. The amount of each radioactive metabolite in a sample lane was determined as a percentage of the total radioactivity recovered from that sample lane, after subtraction of the background counts obtained from lanes lacking radioactive sample.

[3] = tested on: 9L cells; experiment: [3H]MTX accumulation and thin layer chromatography of MTX polyglutamates in 9L cells; conditions: 24 hour exposure to 2 μM MTX, TLC
Description: as §3

[4] = tested on: cocultures with nitroreductase-expressing cells; conditions: cited from earlier work
[5] = tested on: 9L cells transfected with CD; conditions: 9L cells stably transfected with E. coli cytosine deaminase cDNA; cited from earlier work
[6] = tested on: mixed subcutaneous tumors 20% 9L/FPGS and 80% 9L cells; experiment: Growth of mixed subcutaneous tumors (20% 9L/FPGS + 80% 9L) in nude mice; type: in vivo; conditions: 3 mg/kg daily i.p.
Description: (§1) In Vivo Experiments: 10^5 9L or 9L/FPGS cells or a mixture of 8×10^5 9L+2×10^5 9L/FPGS cells in 200 μL DMEM were injected subcutaneously into the flanks of six week old female nude mice (NCr/Sed, nu/nu, 20 gm; Massachusetts General Hospital breeding colony). After 14 days, when the tumors had reached an average volume of 60 mm^3, the mice were randomly divided into experimental groups with five mice per group. Intraperitoneal injections of varying MTX or EDX doses dissolved in 200 μL 0.9% NaCl were administered either daily or every third day. Tumor size was measured weekly using calipers. Tumor volume was calculated as length×width×height, as described previously (Takamiya, Y., et al., Journal of Neuroscience Research 33:493-503 (1992)).

[7] = tested on: subcutaneous 9L/FPGS tumors; experiment: Growth of subcutaneous 9L/FPGS tumors in nude mice; type: in vivo; conditions: 3 mg/kg daily i.p.
Description: as §1

[8] = tested on: cocultures of 9L/FPGS and 9L cells; experiment: Bystander effect study, cocultures of 9L/FPGS and 9L cells; type: cell-based, rat; conditions: for EC50: Rattus norvegicus, 4 h, 4 hrs drug exposure, FIG. 4b, read-out: ED50 (the source's name); for transmission efficiency (TE): 4 hour pulses
Description: For bystander effect studies, cells were plated in triplicate with varying combinations of 9L/FPGS and 9L cells such that the total number of cells was 8×10^5 per 10-cm-diameter plate. The same protocol of 4 hour cell adherence followed by 4 hour drug exposure, washes, growth in drug free medium for 3 days, and counting on a ZM coulter apparatus was then followed. […] Four mL conditioned medium+2 mL fresh medium were added to 10-cm-diameter plates containing 9L/BAG cells plated overnight (1000 cells/dish, with a clonogenic efficiency of approximately 20%). Six days later, the cells were fixed with 4% paraformaldehyde in PBS. Fixed cells were stained for LacZ by incubating overnight in a solution containing 35 mM potassium ferricyanide, 35 mM potassium ferrocyanide, 2 mM magnesium chloride, and 0.2% 5-bromo-4-chloro-3-indolyl-β-D galactoside (Xgal; Fisher Scientific Co.;Pittsburgh, Pa.) at pH=7.3 (Price, J., et al., Proceedings of the National Academy of Sciences USA 84:156-160 (1987)). The next day, blue colonies greater than 1 mm in diameter were counted.
However, a more quantitative approach is to generate a dose-response curve for nontransfected cells, transfected cells, and a coculture and to calculate the transmission efficiency (TE) for the coculture (Friedlos, F., et al., Journal of Medicinal Chemistry 40:1270-1275 (1997)). [formula]
The superscripts 0, N, and 100 designate the ED50 values for cultures containing 0, N, and 100% transfected cells.

[9] = tested on: 9L/BAG cells; experiment: Conditioned medium colony formation of 9L/BAG cells; type: cell-based, rat
Description: Four mL conditioned medium+2 mL fresh medium were added to 10-cm-diameter plates containing 9L/BAG cells plated overnight (1000 cells/dish, with a clonogenic efficiency of approximately 20%). Six days later, the cells were fixed with 4% paraformaldehyde in PBS. […] The next day, blue colonies greater than 1 mm in diameter were counted.
This conditioned medium was then added to 9L/BAG cells. A week later, the cells were stained for LacZ expression, which allowed colony formation to be assayed.

[10] = tested on: FPGS; conditions: relative to MTX; cited from earlier work
[11] = tested on: 9L/FPGS cells; experiment: Cell culture survival study, 9L/FPGS cells; type: cell-based, rat; conditions: for EC50: Rattus norvegicus, 4 h, 9L/FPGS, read-out: ED50 (the source's name)
Description: (§2) Cell Culture Survival Studies: Cells were plated in triplicate at 8×10^5 cells per 10-cm-diameter plate, and were allowed to adhere for 4 hours, after which the medium was replaced with medium containing MTX or EDX. […] Drug-free medium was then added, and three days later the cells were trypsinized and counted on a model ZM Coulter apparatus. Dose-response curves were generated using Sigma Plot 3.0, which employs curve-fitting parameters based on the Marquardt-Levenberg method (Marquardt, D. W., Siam, J., J. Soc. Indust. Appl. Math 11:431-441 (1963)).

[12] = tested on: subcutaneous 9L tumors; experiment: Growth of subcutaneous 9L tumors in nude mice; type: in vivo; conditions: 3 mg/kg daily i.p.
Description: as §1

[13] = tested on: 9L cells; experiment: Cell culture survival study, 9L cells; type: cell-based, rat; conditions: Rattus norvegicus, 4 h, 9L, read-out: ED50 (the source's name)
Description: as §2

[14] = in vivo; conditions: nude, mouse, ip
[15] = tested on: rhabdomyosarcoma cell line; conditions: rhabdomyosarcoma cell line transfected with rabbit carboxylesterase cDNA; cited from earlier work
[16] = 4 hour pulse, repeat of the dose-response curve (Table 3 footnote c)
[17] = 4 hrs drug exposure, curves of FIG. 1 (MTX) / FIG. 3a (EDX)

**Q.** Which “ED50 shift nontransfected versus transfected cells” value [1] does the source give for Nc1nc(O)c2ncn(COC(CO)CO)c2n1 [ganciclovir] here?
**A.** 500 fold

**Q.** For CN(Cc1cnc2nc(N)nc(N)c2n1)c1ccc(C(=O)NC(CCC(=O)NC(CCC(=O)NC(CCC(=O)NC(CCC(=O)O)C(=O)O)C(=O)O)C(=O)O)C(=O)O)cc1 (stereo not shown) [MTX-G3], which “POLYGLUTAMATE DISTRIBUTION (percentages of total sample lane radioactivity)” value [2] is on record?
**A.** 18%

**Q.** And the “POLYGLUTAMATE DISTRIBUTION (percentages of total sample lane radioactivity)” value [3]?
**A.** 13%

**Q.** With CN(Cc1cnc2nc(N)nc(N)c2n1)c1ccc(C(=O)NC(CCC(=O)NC(CCC(=O)NC(CCC(=O)NC(CCC(=O)NC(CCC(=O)NC(CCC(=O)O)C(=O)O)C(=O)O)C(=O)O)C(=O)O)C(=O)O)C(=O)O)cc1 (stereo not shown) [MTX-G5] as the compound, how does the “POLYGLUTAMATE DISTRIBUTION (percentages of total sample lane radioactivity)” value [2] read?
**A.** 3%

**Q.** And the “POLYGLUTAMATE DISTRIBUTION (percentages of total sample lane radioactivity)” value [3]?
**A.** 1%

**Q.** For CN(Cc1cnc2nc(N)nc(N)c2n1)c1ccc(C(=O)NC(CCC(=O)NC(CCC(=O)O)C(=O)O)C(=O)O)cc1 (stereo not shown) [MTX-G1], which “POLYGLUTAMATE DISTRIBUTION (percentages of total sample lane radioactivity)” value [2] is on record?
**A.** 22%

**Q.** And the “POLYGLUTAMATE DISTRIBUTION (percentages of total sample lane radioactivity)” value [3]?
**A.** 29%

**Q.** What does the source list for NC(=O)c1cc(N2CC2)c([N+](=O)[O-])cc1[N+](=O)[O-] [CB1954]?
**A.** TE values ([4]; 1% cocultures): above 50%; TE values ([4]; 10% cocultures): above 70%

**Q.** With Nc1nc(=O)[nH]cc1F [5-fluorocytosine] as the compound, how does the “ED50 shift nontransfected versus transfected cells” value [5] read?
**A.** 80 fold

**Q.** Which “fold growth of tumor volume” value ([6]; after three weeks) does the source give for CCC(Cc1cnc2nc(N)nc(N)c2n1)c1ccc(C(=O)N[C@@H](CCC(=O)O)C(=O)O)cc1 (stereo partly shown) [EDX, Edatrexate] here?
**A.** 5 fold

**Q.** What about the “fold growth of tumor volume” value ([6]; after two weeks) of the same compound?
**A.** more than 4 fold

**Q.** What about the “growth of tumor volume” value ([7]; after three weeks) of the same compound?
**A.** doubled in volume

**Q.** What about the “fold growth of tumor volume” value ([7]; after two weeks) of the same compound?
**A.** less than 4 fold

**Q.** And the EC50 ([8]; coculture 1% 9L/FPGS)?
**A.** 605 nM

**Q.** What about the EC50 ([8]; coculture 10% 9L/FPGS) of the same compound?
**A.** 337 nM

**Q.** What about the EC50 ([8]; coculture 20% 9L/FPGS) of the same compound?
**A.** 134 nM

**Q.** And the “transmission efficiency (TE)” value ([8]; cocultures containing 1% 9L/FPGS cells)?
**A.** 33.1% and 33%

**Q.** And the “transmission efficiency (TE)” value ([8]; cocultures containing 10% 9L/FPGS cells)?
**A.** 63.8% and 64%

**Q.** What about the “transmission efficiency (TE)” value ([8]; cocultures containing 20% 9L/FPGS cells) of the same compound?
**A.** 87%

**Q.** And the “9L/BAG colonies relative to conditioned medium from non-treated cells” value ([9]; conditioned medium from 9L cells pulsed with 0.3 μM for 4 hours)?
**A.** 83%

**Q.** And the “9L/BAG colonies relative to conditioned medium from non-treated cells” value ([9]; conditioned medium from 9L/FPGS cells pulsed with 0.3 μM for 4 hours)?
**A.** 47%

**Q.** What about the “Km of FPGS, lower than its Km for MTX” value [10] of the same compound?
**A.** 4-5 fold

**Q.** And the survival ([11]; 9L/FPGS cells, 300 nM, 4 hour pulse)?
**A.** below 10%

**Q.** And the “range of concentrations with statistically significant difference in survival between 9L and 9L/FPGS” value ([11]; 4 hour pulses)?
**A.** 10,000 fold

**Q.** What about the “difference in ED50 between 9L and 9L/FPGS” value ([11]; 4 hour pulses, FIG. 1 / FIG. 3A) of the same compound?
**A.** 67 fold

**Q.** What about the EC50 [11, 16] of the same compound?
**A.** 26 nM

**Q.** And the EC50 ([11]; 4 hrs drug exposure, bystander experiment FIG. 4a (MTX) / 4b (EDX))?
**A.** 20 nM

**Q.** What about the EC50 [11, 17] of the same compound?
**A.** 18 nM

**Q.** And the “fold growth of tumor volume” value ([12]; after three weeks)?
**A.** 10 fold

**Q.** What about the “fold growth of tumor volume” value ([12]; after two weeks) of the same compound?
**A.** 8 fold

**Q.** And the EC50 [13, 16]?
**A.** 1200 nM

**Q.** And the EC50 ([13]; 4 hrs drug exposure, bystander experiment FIG. 4b)?
**A.** 895 nM

**Q.** And the EC50 [13, 17]?
**A.** 1200 nM

**Q.** And the MTD [14]?
**A.** 3 mg/kg/day

**Q.** Which “decrease in ED50 on transfection” value [15] does the source give for CCc1c2c(nc3ccc(OC(=O)N4CCC(N5CCCCC5)CC4)cc13)-c1cc3c(c(=O)n1C2)COC(=O)[C@]3(O)CC [CPT-11] here?
**A.** 8 fold

**Q.** Which results are given for CN(Cc1cnc2nc(N)nc(N)c2n1)c1ccc(C(=O)NC(CCC(=O)NC(CCC(=O)NC(CCC(=O)NC(CCC(=O)NC(CCC(=O)O)C(=O)O)C(=O)O)C(=O)O)C(=O)O)C(=O)O)cc1 (stereo not shown) [MTX-G4]?
**A.** POLYGLUTAMATE DISTRIBUTION (percentages of total sample lane radioactivity) [2]: 28%; POLYGLUTAMATE DISTRIBUTION (percentages of total sample lane radioactivity) [3]: 13%

**Q.** For CN(Cc1cnc2nc(N)nc(N)c2n1)c1ccc(C(=O)NC(CCC(=O)NC(CCC(=O)NC(CCC(=O)O)C(=O)O)C(=O)O)C(=O)O)cc1 (stereo not shown) [MTX-G2], which “POLYGLUTAMATE DISTRIBUTION (percentages of total sample lane radioactivity)” value [2] is on record?
**A.** 19%

**Q.** And the “POLYGLUTAMATE DISTRIBUTION (percentages of total sample lane radioactivity)” value [3]?
**A.** 15%
